Data published in PubChem BioAssay (NCI).
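Step 1: Grow cells in 96-well plates. Step 2: Expose to compound for 48 hours at 5 concentrations. Step 3: Interpolate endpoints linearly; if unreached, use highest concentration. GI50 = concentration required for 50% inhibition of growth. Definition used: TGI = concentration required for complete inhibition of growth.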 Where a SMILES comes first, the peptide text is derived from it. [ ]: non-standard residue; d: D form.

Tests used:
Test in all cases: NCI tumour cell line growth inhibition, 48 h
[1] = system: UACC-62 melanoma
[2] = system: IGROV1 ovarian
[3] = system: SNB-19 CNS
[4] = system: MDA-MB-231 breast
[5] = system: ACHN renal
[6] = system: U251 CNS
[7] = system: CAKI-1 renal
[8] = system: HCT-15 colon
[9] = system: HOP-62 NSCLC
[10] = system: MCF7 breast

SMILES: CC(=O)/C(=C/N1CCN(C(=O)c2ccco2)C1=S)C(=O)c1ccccc1
- GI50 [1]: 7.33 µM
- TGI [1]: 16.9 µM
- GI50 [2]: 10.9 µM
- TGI [2]: 28.4 µM
- GI50 [3]: 16.3 µM
- TGI [3]: > 50 µM
- GI50 [4]: 9.46 µM
- TGI [4]: 19.8 µM
- GI50 [5]: 6.9 µM
- TGI [5]: 17.6 µM
- GI50 [6]: 13.4 µM
- TGI [6]: > 50 µM
- GI50 [7]: 9.29 µM
- TGI [7]: 32.5 µM
- GI50 [8]: 4.71 µM
- TGI [8]: 18.9 µM
- GI50 [9]: 11.7 µM
- TGI [9]: 27.7 µM
- GI50 [10]: 1.25 µM
- TGI [10]: 4.2 µM

SMILES: CC(=O)OC1=C(CC(C)(C)C)C(=O)c2ccccc2C1=O
- TGI [1]: > 100 µM
- TGI [2]: > 100 µM
- TGI [3]: > 100 µM
- TGI [4]: > 100 µM
- TGI [5]: > 100 µM
- TGI [6]: > 100 µM
- TGI [7]: > 100 µM
- TGI [8]: > 100 µM
- TGI [9]: > 100 µM
- TGI [10]: > 100 µM

SMILES: CCCCCCCCc1cc(O)ccc1O
- GI50 [1]: 13.6 µM
- TGI [1]: 26.6 µM
- GI50 [2]: 17.7 µM
- TGI [2]: 43.8 µM
- GI50 [3]: 18.5 µM
- TGI [3]: 39.9 µM
- GI50 [4]: 13 µM
- TGI [4]: 27.3 µM
- GI50 [5]: 20.4 µM
- TGI [5]: 50.9 µM
- GI50 [6]: 18.5 µM
- TGI [6]: 40.6 µM
- GI50 [7]: 21.3 µM
- TGI [7]: 90 µM
- GI50 [8]: 16.4 µM
- TGI [8]: 38 µM
- GI50 [9]: 25.5 µM
- TGI [9]: 60.6 µM
- GI50 [10]: 24.8 µM
- TGI [10]: 66.8 µM

SMILES: Cc1c2ccccc2c(C)n2c1nc1cc(Cl)c(Cl)cc12
- GI50 [1]: 45.2 µM
- TGI [1]: > 100 µM
- GI50 [2]: 8.62 µM
- TGI [2]: > 100 µM
- GI50 [3]: > 100 µM
- TGI [3]: > 100 µM
- GI50 [4]: 72.5 µM
- TGI [4]: > 100 µM
- GI50 [5]: 26 µM
- TGI [5]: > 100 µM
- GI50 [6]: 34.6 µM
- TGI [6]: > 100 µM
- GI50 [7]: 15.1 µM
- TGI [7]: > 100 µM
- GI50 [8]: 93.5 µM
- TGI [8]: > 100 µM
- GI50 [9]: > 100 µM
- TGI [9]: > 100 µM
- GI50 [10]: 1.09 µM
- TGI [10]: > 100 µM

SMILES: CSCC[C@H](NC(=O)[C@@H](N)CC(N)=O)C(=O)N[C@@H](Cc1c[nH]c2ccccc12)C(=O)N[C@@H](CCC(N)=O)C(=O)N[C@@H](CCC(=O)O)C(=O)N[C@H](C(=O)NCC(=O)N[C@@H](CCCCN)C(=O)N[C@H](C)C(=O)O)C(C)C (H-NMWQEVGK[dA]-OH)
- TGI [1]: > 100 µM
- TGI [2]: > 100 µM
- TGI [3]: > 100 µM
- TGI [4]: > 100 µM
- TGI [5]: > 100 µM
- TGI [6]: > 100 µM
- TGI [7]: > 100 µM
- TGI [8]: > 100 µM
- TGI [9]: > 100 µM
- TGI [10]: > 100 µM

SMILES: COc1ccc(/C=C2/CSC/C(=C/c3ccc(OC)c(OC)c3)C2=O)cc1OC
- TGI [1]: 3.32 µM
- TGI [2]: 5.99 µM
- TGI [3]: 16.2 µM
- TGI [4]: 8.18 µM
- TGI [5]: 5.58 µM
- TGI [6]: 2.72 µM
- TGI [7]: 12.8 µM
- TGI [8]: 3.46 µM
- TGI [9]: 8.72 µM
- TGI [10]: > 100 µM

SMILES: CN(C)CCOc1ccc2c(c1)C(=O)/C(=C\c1ncc([N+](=O)[O-])n1C)C2
- GI50 [1]: 0.851 µM
- TGI [1]: 2.49 µM
- GI50 [2]: 0.147 µM
- TGI [2]: 0.378 µM
- GI50 [3]: 1.15 µM
- TGI [3]: 3.18 µM
- GI50 [4]: 0.418 µM
- TGI [4]: 2.33 µM
- GI50 [5]: 0.298 µM
- TGI [5]: 2.37 µM
- GI50 [6]: 1.12 µM
- TGI [6]: 4.75 µM
- GI50 [7]: 0.386 µM
- TGI [7]: 2.4 µM
- GI50 [8]: 0.311 µM
- TGI [8]: 7.39 µM
- GI50 [9]: 1.59 µM
- TGI [9]: 4.34 µM
- GI50 [10]: 0.216 µM
- TGI [10]: 2.5 µM

SMILES: CSc1nc2ccc(C)cc2cc1/C=C1/C=C(c2ccccc2)NC1=O
- GI50 [1]: 10.8 µM
- TGI [1]: 48.2 µM
- GI50 [2]: 2.71 µM
- TGI [2]: 24.1 µM
- GI50 [3]: 4.6 µM
- TGI [3]: 33.5 µM
- GI50 [4]: 4.42 µM
- TGI [4]: 36.6 µM
- GI50 [5]: 1.04 µM
- TGI [5]: 5.54 µM
- GI50 [6]: 0.602 µM
- TGI [6]: 3.68 µM
- GI50 [7]: 1.21 µM
- TGI [7]: 10.9 µM
- GI50 [8]: 14 µM
- TGI [8]: > 100 µM
- GI50 [9]: 2.42 µM
- TGI [9]: 11.7 µM
- GI50 [10]: 12.5 µM
- TGI [10]: > 100 µM

SMILES: COC(=O)c1cc(C)[nH]c2c(C)cc3nc4ccccc4c3c12
- GI50 [1]: 5.99 µM
- TGI [1]: 21.1 µM
- GI50 [2]: 6.01 µM
- TGI [2]: 23.9 µM
- GI50 [3]: 12.7 µM
- TGI [3]: 29.5 µM
- GI50 [4]: 2.44 µM
- TGI [4]: 10.5 µM
- GI50 [5]: 11.6 µM
- TGI [5]: 25.4 µM
- GI50 [6]: 10.7 µM
- TGI [6]: 23.9 µM
- GI50 [7]: 2.89 µM
- TGI [7]: 13.4 µM
- GI50 [8]: 5.19 µM
- TGI [8]: 22.2 µM
- GI50 [9]: 12.4 µM
- TGI [9]: 25.1 µM
- GI50 [10]: 8.01 µM
- TGI [10]: 22.8 µM

SMILES: C[C@@H](C[C@H](CCO)c1ccccc1)c1ccc2ccccc2c1
- GI50 [1]: 1.42 µM
- TGI [1]: 2.86 µM
- GI50 [2]: 1.57 µM
- TGI [2]: 3.01 µM
- GI50 [3]: 1.79 µM
- TGI [3]: 3.42 µM
- GI50 [4]: 1.6 µM
- TGI [4]: 3.19 µM
- GI50 [5]: 1.65 µM
- TGI [5]: 3.01 µM
- GI50 [6]: 1.57 µM
- TGI [6]: 2.94 µM
- GI50 [7]: 1.28 µM
- TGI [7]: 2.54 µM
- GI50 [8]: 1.5 µM
- TGI [8]: 2.91 µM
- GI50 [9]: 1.52 µM
- TGI [9]: 2.99 µM
- GI50 [10]: 1.97 µM
- TGI [10]: 4.04 µM

SMILES: CN1CCN(c2nc3cc(F)ccc3n3cccc23)CC1
- TGI [1]: 80.4 µM
- TGI [2]: 87.6 µM
- TGI [3]: > 100 µM
- TGI [4]: > 100 µM
- TGI [5]: > 100 µM
- TGI [6]: > 100 µM
- TGI [7]: 79 µM
- TGI [8]: > 100 µM
- TGI [9]: > 100 µM
- TGI [10]: > 100 µM

SMILES: C=C(CN1CCN(c2ccc(F)c(Cl)c2)CC1)c1ccc(C(=O)Nc2ccccc2N)cc1
- GI50 [1]: 5.24 µM
- TGI [1]: 54.3 µM
- GI50 [2]: 1.88 µM
- TGI [2]: 7.86 µM
- GI50 [3]: > 100 µM
- TGI [3]: > 100 µM
- GI50 [4]: 1.81 µM
- TGI [4]: 6.81 µM
- GI50 [5]: 6.43 µM
- TGI [5]: > 100 µM
- GI50 [6]: 4.42 µM
- TGI [6]: 23.7 µM
- GI50 [7]: 4.12 µM
- TGI [7]: 77.8 µM
- GI50 [8]: 5.38 µM
- TGI [8]: > 100 µM
- GI50 [9]: 3.09 µM
- TGI [9]: 16.4 µM
- GI50 [10]: 5.17 µM
- TGI [10]: > 100 µM

SMILES: COc1ccc2c(c1)[nH]c1c3ccc(OC)cc3oc(=O)c21
- TGI [1]: > 100 µM
- TGI [2]: > 100 µM
- TGI [3]: > 100 µM
- TGI [4]: > 100 µM
- TGI [5]: > 100 µM
- TGI [6]: > 100 µM
- TGI [7]: > 100 µM
- TGI [8]: > 100 µM
- TGI [9]: > 100 µM
- TGI [10]: > 100 µM

SMILES: C[C@H]1CC[C@@H]2[C@@H](C)[C@H]3[C@H](C[C@H]4[C@@H]5CC=C6C[C@@H](O)CC[C@]6(C)[C@H]5CC[C@]34C)N2C1
- TGI [1]: > 100 µM
- TGI [2]: > 100 µM
- TGI [3]: > 100 µM
- TGI [4]: > 100 µM
- TGI [5]: > 100 µM
- TGI [6]: > 100 µM
- TGI [7]: > 100 µM
- TGI [8]: > 100 µM
- TGI [9]: > 100 µM
- TGI [10]: > 100 µM

SMILES: CC1=C(SCCC(=O)OC(C[Se]C2=C(C)C(=O)c3ccccc3C2=O)C(=O)NC(C)(C)C)C(=O)c2ccccc2C1=O (stereo not given)
- GI50 [1]: 1.48 µM
- TGI [1]: 2.83 µM
- GI50 [2]: 0.771 µM
- TGI [2]: 2.1 µM
- GI50 [3]: 0.867 µM
- TGI [3]: 2.08 µM
- GI50 [4]: 1.49 µM
- TGI [4]: 2.94 µM
- GI50 [5]: 1.56 µM
- TGI [5]: 2.9 µM
- GI50 [6]: 0.45 µM
- TGI [6]: 1.57 µM
- GI50 [7]: 1.65 µM
- TGI [7]: 3.36 µM
- GI50 [8]: 1.47 µM
- TGI [8]: 3.11 µM
- GI50 [9]: 0.32 µM
- TGI [9]: 1.68 µM
- GI50 [10]: 1.62 µM
- TGI [10]: 3.65 µM
